In ChEMBL document CHEMBL1201862, “PubChem BioAssay data set” (2004):
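Cells were grown in 96-well plates and exposed to each compound for 48 hours at five concentrations; endpoints were interpolated linearly between bracketing concentrations, or set to the highest concentration if not reached. Abbreviation: GI50, concentration required for 50% inhibition of growth.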 Active and inactive are the calls of the source. No stated cut-off is given here; in the data, active = GI50 up to about 1.1 µM and inactive = higher.

Key:
Test in all cases: NCI-60 cell line screen, 48 h
[1] = test system: 786-0
[2] = test system: A498
[3] = test system: A549
[4] = test system: ACHN
[5] = test system: BT-549
[6] = test system: COLO 205
[7] = test system: DU-145
[8] = test system: EKVX
[9] = test system: HCC 2998
[10] = test system: HCT-116
[11] = test system: HCT-15
[12] = test system: HOP-62
[13] = test system: Hs-578T
[14] = test system: IGROV-1
[15] = test system: K562
[16] = test system: KM12
[17] = test system: LOX IMVI
[18] = test system: M14
[19] = test system: MCF7
[20] = test system: MDA-MB-231
[21] = test system: MDA-MB-435
[22] = test system: MDA-N
[23] = test system: MOLT-4
[24] = test system: NCI-H226
[25] = test system: NCI-H23
[26] = test system: NCI-H460
[27] = test system: NCI/ADR-RES
[28] = test system: OVCAR-3
[29] = test system: OVCAR-4
[30] = test system: OVCAR-5
[31] = test system: OVCAR-8
[32] = test system: PC-3
[33] = test system: RPMI-8226
[34] = test system: RXF 393
[35] = test system: SF-268
[36] = test system: SF-295
[37] = test system: SK-MEL-28
[38] = test system: SK-MEL-2
[39] = test system: SK-OV-3
[40] = test system: SN12C
[41] = test system: SNB-19
[42] = test system: SNB-75
[43] = test system: SR
[44] = test system: SW-620
[45] = test system: T47D
[46] = test system: TK-10
[47] = test system: U-251
[48] = test system: UACC-257
[49] = test system: UACC-62
[50] = test system: UO-31
[51] = test system: CAKI-1
[52] = test system: CCRF-CEM
[53] = test system: HL-60
[54] = test system: HT-29
[55] = test system: Malme-3M
[56] = test system: NCI-H522
[57] = test system: SF-539
[58] = test system: SK-MEL-5

## O=C(O)CCC/N=C(\C(=N\CCCC(=O)O)c1ccccc1)c1ccccc1
[1]
  GI50: > 100 µM (inactive)
[2]
  GI50: > 100 µM (inactive)
[3]
  GI50: > 100 µM (inactive)
[4]
  GI50: > 100 µM (inactive)
[5]
  GI50: > 100 µM (inactive)
[6]
  GI50: > 100 µM (inactive)
[7]
  GI50: > 100 µM (inactive)
[8]
  GI50: > 100 µM (inactive)
[9]
  GI50: > 100 µM (inactive)
[10]
  GI50: > 100 µM (inactive)
[11]
  GI50: > 100 µM
[12]
  GI50: > 100 µM (inactive)
[13]
  GI50: > 100 µM (inactive)
[14]
  GI50: > 100 µM (inactive)
[15]
  GI50: > 100 µM (inactive)
[16]
  GI50: > 100 µM (inactive)
[17]
  GI50: > 100 µM (inactive)
[18]
  GI50: > 100 µM (inactive)
[19]
  GI50: > 100 µM (inactive)
[20]
  GI50: > 100 µM (inactive)
[21]
  GI50: > 100 µM (inactive)
[22]
  GI50: > 100 µM (inactive)
[23]
  GI50: > 100 µM (inactive)
[24]
  GI50: > 100 µM (inactive)
[25]
  GI50: > 100 µM (inactive)
[26]
  GI50: > 100 µM (inactive)
[27]
  GI50: > 100 µM (inactive)
[28]
  GI50: > 100 µM (inactive)
[29]
  GI50: > 100 µM (inactive)
[30]
  GI50: > 100 µM (inactive)
[31]
  GI50: > 100 µM (inactive)
[32]
  GI50: > 100 µM (inactive)
[33]
  GI50: > 100 µM (inactive)
[34]
  GI50: > 100 µM (inactive)
[35]
  GI50: > 100 µM (inactive)
[36]
  GI50: > 100 µM (inactive)
[37]
  GI50: > 100 µM (inactive)
[38]
  GI50: > 100 µM (inactive)
[39]
  GI50: > 100 µM (inactive)
[40]
  GI50: > 100 µM (inactive)
[41]
  GI50: > 100 µM (inactive)
[42]
  GI50: > 100 µM (inactive)
[43]
  GI50: > 100 µM (inactive)
[44]
  GI50: > 100 µM (inactive)
[45]
  GI50: > 100 µM (inactive)
[46]
  GI50: > 100 µM (inactive)
[47]
  GI50: > 100 µM (inactive)
[48]
  GI50: > 100 µM (inactive)
[49]
  GI50: > 100 µM (inactive)
[50]
  GI50: > 100 µM (inactive)

## CCCCCCCCCCCCCCCCCCNc1ccn(C2OC(COP(=O)(O)OCC3OC(n4ccc(NC(=O)CCCCCCCCCCCCCCCCC)nc4=O)C(OC(C)=O)C3OC(C)=O)C(OC(C)=O)C2OC(C)=O)c(=O)n1 (stereo not drawn)
[1]
  GI50: > 100 µM (inactive)
[2]
  GI50: > 100 µM (inactive)
[3]
  GI50: > 100 µM (inactive)
[4]
  GI50: > 100 µM (inactive)
[5]
  GI50: > 100 µM (inactive)
[51]
  GI50: > 100 µM (inactive)
[52]
  GI50: > 100 µM (inactive)
[6]
  GI50: > 100 µM (inactive)
[7]
  GI50: > 100 µM (inactive)
[8]
  GI50: > 100 µM (inactive)
[9]
  GI50: > 100 µM (inactive)
[10]
  GI50: > 100 µM (inactive)
[11]
  GI50: > 100 µM
[53]
  GI50: > 100 µM (inactive)
[12]
  GI50: > 100 µM (inactive)
[54]
  GI50: > 100 µM (inactive)
[13]
  GI50: > 100 µM (inactive)
[14]
  GI50: > 100 µM (inactive)
[15]
  GI50: 0.0551 µM (active)
[16]
  GI50: > 100 µM (inactive)
[17]
  GI50: > 100 µM (inactive)
[18]
  GI50: > 100 µM (inactive)
[19]
  GI50: > 100 µM (inactive)
[20]
  GI50: > 100 µM (inactive)
[21]
  GI50: > 100 µM (inactive)
[22]
  GI50: > 100 µM (inactive)
[23]
  GI50: > 100 µM (inactive)
[55]
  GI50: > 100 µM (inactive)
[24]
  GI50: > 100 µM (inactive)
[25]
  GI50: > 100 µM (inactive)
[26]
  GI50: > 100 µM (inactive)
[56]
  GI50: > 100 µM (inactive)
[27]
  GI50: > 100 µM (inactive)
[28]
  GI50: > 100 µM (inactive)
[29]
  GI50: > 100 µM (inactive)
[30]
  GI50: > 100 µM (inactive)
[31]
  GI50: > 100 µM (inactive)
[32]
  GI50: > 100 µM (inactive)
[33]
  GI50: > 100 µM (inactive)
[34]
  GI50: > 100 µM (inactive)
[35]
  GI50: > 100 µM (inactive)
[36]
  GI50: > 100 µM (inactive)
[57]
  GI50: > 100 µM (inactive)
[37]
  GI50: > 100 µM (inactive)
[38]
  GI50: > 100 µM (inactive)
[58]
  GI50: > 100 µM (inactive)
[39]
  GI50: > 100 µM (inactive)
[40]
  GI50: > 100 µM (inactive)
[41]
  GI50: > 100 µM (inactive)
[42]
  GI50: > 100 µM (inactive)
[43]
  GI50: > 100 µM (inactive)
[44]
  GI50: > 100 µM (inactive)
[45]
  GI50: > 100 µM (inactive)
[46]
  GI50: > 100 µM (inactive)
[47]
  GI50: > 100 µM (inactive)
[48]
  GI50: > 100 µM (inactive)
[49]
  GI50: > 100 µM (inactive)
[50]
  GI50: > 100 µM (inactive)
